This is an account of results in US20190367516A1 (Bayer Pharma Aktiengesellschaft, priority 2015, published 2019).

In the assay the target is T1, human M2 receptor (Homo sapiens, UniProt P08172).
T1 sequence (P08172 1-466): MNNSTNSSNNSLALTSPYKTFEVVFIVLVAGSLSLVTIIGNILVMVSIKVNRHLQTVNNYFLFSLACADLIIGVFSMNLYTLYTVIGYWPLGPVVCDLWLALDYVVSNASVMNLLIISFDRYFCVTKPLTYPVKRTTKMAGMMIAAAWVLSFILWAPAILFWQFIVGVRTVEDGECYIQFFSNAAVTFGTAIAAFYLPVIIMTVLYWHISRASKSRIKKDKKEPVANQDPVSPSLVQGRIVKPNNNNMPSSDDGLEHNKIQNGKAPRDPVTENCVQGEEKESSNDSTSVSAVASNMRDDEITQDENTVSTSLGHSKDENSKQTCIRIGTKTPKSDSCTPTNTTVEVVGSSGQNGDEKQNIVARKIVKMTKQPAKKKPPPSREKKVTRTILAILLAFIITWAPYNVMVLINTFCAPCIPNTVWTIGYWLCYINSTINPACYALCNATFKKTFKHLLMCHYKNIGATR
The conditions noted are these: M2-GIRK1/4 reporter cells; for EC50: Receptor activity EC50, allosteric potency at EC20 acetylcholine, in some cases mean of two or more determinations; for Emax: read-out: Efficiency, boosting of the acetylcholine effect at EC20 acetylcholine concentration.

Broadly, the EC50 is the concentration needed to bring the measured effect to its halfway point. Higher therefore signals a need for much substance. Turning to `O=C(NC(CC(F)(F)F)C(F)(F)F)c1cn(-c2c(F)cc(F)cc2F)c2nc(N3C[C@@H](O)[C@H](O)C3)ccc2c1=O` (stereo partly drawn) [Example 545, 7-[(3R,4R)-3,4-Dihydroxypyrrolidin-1-yl]-N-[1,1,1,4,4,4-hexafluorobutan-2-yl]-4-oxo-1-(2,4,6-trifluorophenyl)-1,4-dihydro-1,8-naphthyridine-3-carboxamide], a half-maximal response (EC50) required 8 nM and the Emax is 99%.

With `O=C(N[C@@H](C1CC1)C(F)(F)F)c1cn(-c2c(F)cc(F)cc2Cl)c2nc(N3C[C@@H](O)[C@H](O)C3)ccc2c1=O` [Example 546, 1-(2-Chloro-4,6-difluorophenyl)-N-[(1 S)-1-cyclopropyl-2,2,2-trifluoroethyl]-7-[(3R,4R)-3,4-dihydroxypyrrolidin-1-yl]-4-oxo-1,4-dihydro-1,8-naphthyridine-3-carboxamide], the EC50 is 10 nM and the Emax stood at 100%.

For the compound `O=C(NC(C(F)(F)F)C(F)(F)F)c1cn(-c2c(F)cc(F)cc2F)c2nc(N3C[C@@H](O)CC3=O)ccc2c1=O` [Example 555, N-(1,1,1,3,3,3-Hexafluoropropan-2-yl)-7-[(4S)-4-hydroxy-2-oxopyrrolidin-1-yl]-4-oxo-1-(2,4,6-trifluorophenyl)-1,4-dihydro-1,8-naphthyridine-3-carboxamide], the EC50 worked out at 10 nM and the Emax was 100%.

Consider `CC(C)C[C@H](NC(=O)c1cn(-c2c(F)cc(F)cc2F)c2nc(N3C[C@@H](O)[C@H](O)C3)ccc2c1=O)C(F)(F)F` [Example 559, 7-[(3R,4R)-3,4-Dihydroxypyrrolidin-1-yl]-4-oxo-N-[(2S)-1,1,1-trifluoro-4-methylpentan-2-yl]-1-(2,4,6-trifluorophenyl)-1,4-dihydro-1,8-naphthyridine-3-carboxamide], for which the response was half-maximal at 10 nM (EC50) and the Emax was found to be 99%.

Regarding `CC[C@H](NC(=O)c1cn(-c2c(F)cc(F)cc2Cl)c2nc(N3C[C@@H](O)[C@H](O)C3)ccc2c1=O)C(F)(F)F` [Example 566, 1-(2-Chloro-4,6-difluorophenyl)-7-[(3R,4R)-3,4-dihydroxypyrrolidin-1-yl]-4-oxo-N-[(2S)-1,1,1-trifluorobutan-2-yl]-1,4-dihydro-1,8-naphthyridine-3-carboxamide], the EC50 was 16 nM and the Emax is 96.5%.

As to `O=C(NC(C(F)(F)F)C(F)(F)F)c1cn(-c2c(F)cc(F)cc2F)c2nc(N3C[C@@H](O)[C@H](O)C3)ccc2c1=O` [Example 572, 7-[(3R,4R)-3,4-Dihydroxypyrrolidin-1-yl]-N-(1,1,1,3,3,3-hexafluoropropan-2-yl)-4-oxo-1-(2,4,6-trifluorophenyl)-1,4-dihydro-1,8-naphthyridine-3-carboxamide], a half-maximal effect (EC50) was put at 12 nM and the Emax was 100%.

With `COC(=O)N1CCN(c2ccc3c(=O)c(C(=O)NC(C)(C)CC(F)(F)F)cn(-c4c(F)cc(F)cc4F)c3n2)CC1` [Example 575, Methyl 4-{5-oxo-6-[(4,4,4-trifluoro-2-methylbutan-2-yl)carbamoyl]-8-(2,4,6-trifluorophenyl)-5,8-dihydro-1,8-naphthyridin-2-yl}piperazine-1-carboxylate], the EC50 amounted to 13 nM and the Emax was 96%.

For the compound `CC1C(=O)N(c2ccc3c(=O)c(C(=O)N[C@@H](C4CC4)C(F)(F)F)cn(-c4c(F)cc(F)cc4F)c3n2)CC1O` (stereo partly shown) [Example 579, N-[(1 S)-1-Cyclopropyl-2,2,2-trifluoroethyl]-7-[4-hydroxy-3-methyl-2-oxopyrrolidin-1-yl]-4-oxo-1-(2,4,6-trifluorophenyl)-1,4-dihydro-1,8-naphthyridine-3-carboxamide], the EC50 amounted to 14 nM and the Emax was 97.5%.

Turning to `CC(C)C[C@@H](NC(=O)c1cn(-c2c(F)cc(F)cc2F)c2nc(N3CCNC3=O)ccc2c1=O)C(F)(F)F` [Example 580, 4-Oxo-7-(2-oxoimidazolidin-1-yl)-N-[(2R)-1,1,1-trifluoro-4-methylpentan-2-yl)-1-(2,4,6-trifluorophenyl)-1,4-dihydro-1,8-naphthyridine-3-carboxamide], the EC50 was 14 nM and the Emax amounted to 100%.

`CC(NC(=O)c1cn(-c2c(F)cc(F)cc2F)c2nc(N3CCNC3=O)ccc2c1=O)(C(F)(F)F)C(F)(F)F` [Example 581, N-(1,1,1,3,3,3-Hexafluoro-2-methylpropan-2-yl)-4-oxo-7-(2-oxoimidazolidin-1-yl)-1-(2,4,6-trifluorophenyl)-1,4-dihydro-1,8-naphthyridine-3-carboxamide]: a half-maximal effect (EC50) was put at 14 nM and the Emax was 98%.

On to `O=C(Nc1c(Cl)cccc1Cl)c1cn(-c2c(F)cc(F)cc2F)c2nc(N3C[C@@H](O)[C@H](O)C3)ccc2c1=O` [Example 585, N-(2,6-Dichlorophenyl)-7-[(3R,4R)-3,4-dihydroxypyrrolidin-1-yl]-4-oxo-1-(2,4,6-trifluorophenyl)-1,4-dihydro-1,8-naphthyridine-3-carboxamide], for which the midpoint of the response, the EC50, lay at 14 nM and the Emax came out at 95.5%.

Take `CC(NC(=O)c1cn(-c2c(F)cc(F)cc2F)c2nc(N3C[C@@H](O)[C@H](O)C3)ccc2c1=O)(C(F)(F)F)C(F)(F)F` [Example 591, 7-[(3R,4R)-3,4-Dihydroxypyrrolidin-1-yl]-N-(1,1,3,3,3-hexafluoro-2-methylpropan-2-yl)-4-oxo-1-(2,4,6-trifluorophenyl)-1,4-dihydro-1,8-naphthyridine-3-carboxamide]: a half-maximal effect (EC50) was put at 16 nM and the Emax worked out at 100%.

Consider `O=C(Nc1c(Cl)cccc1Cl)c1cn(-c2c(F)cc(F)cc2F)c2nc(N3C[C@@H](O)CC3=O)ccc2c1=O` [Example 592, N-(2,6-Dichlorophenyl)-7-[(4S)-4-hydroxy-2-oxopyrrolidin-1-yl]-4-oxo-1-(2,4,6-trifluorophenyl)-1,4-dihydro-1,8-naphthyridine-3-carboxamide], for which the response was half-maximal at 16 nM (EC50) and the Emax turned out to be 99.5%.

On to `COC(=O)N1CCN(c2ccc3c(=O)c(C(=O)N[C@H](C4CC4)C(F)(F)F)cn(-c4c(F)cc(F)cc4F)c3n2)CC1` [Example 594, Methyl 4-[6-{[(1R)-1-cyclopropyl-2,2,2-trifluoroethyl]carbamoyl}-5-oxo-8-(2,4,6-trifluorophenyl)-5,8-dihydro-1,8-naphthyridin-2-yl]piperazine-1-carboxylate], for which a half-maximal response (EC50) required 18 nM and the Emax was determined as 100%.

Consider `COC1(C)CN(c2ccc3c(=O)c(C(=O)N[C@@H](C(C)(C)C)C(F)(F)F)cn(-c4c(F)cc(F)cc4F)c3n2)C1` [Example 598, 7-(3-Methoxy-3-methylazetidin-1-yl)-4-oxo-N-[(2S)-1,1,1-trifluoro-3,3-dimethylbutan-2-yl]-1-(2,4,6-trifluorophenyl)-1,4-dihydro-1,8-naphthyridine-3-carboxamide], for which the EC50 came to 21 nM and the Emax amounted to 100%.

On to `O=C(NC(C(F)(F)F)C(F)(F)F)c1cn(-c2c(F)cc(F)cc2F)c2nc(N3CCNC3=O)ccc2c1=O` [Example 599, N-(1,1,1,3,3,3-Hexafluoropropan-2-yl)-4-oxo-7-(2-oxoimidazolidin-1-yl)-1-(2,4,6-trifluorophenyl)-1,4-dihydro-1,8-naphthyridine-3-carboxamide], for which the EC50 was found to be 23 nM and the Emax turned out to be 90%.

`COC(=O)N1CCN(c2ccc3c(=O)c(C(=O)N[C@@H](C4CC4)C(F)(F)F)cn(-c4c(F)cc(F)cc4F)c3n2)CC1` [Example 603, Methyl 4-[6-{[(1 S)-1-cyclopropyl-2,2,2-trifluoroethyl]carbamoyl}-5-oxo-8-(2,4,6-trifluorophenyl)-5,8-dihydro-1,8-naphthyridin-2-yl]piperazine-1-carboxylate]: the EC50 was 25 nM and the Emax was 89.5%.

As to `O=C(N[C@@H](C1CC1)C(F)(F)F)c1cn(-c2c(F)cc(F)cc2F)c2nc(N3CCCNC3=O)ccc2c1=O` [Example 604, N-[(1S)-1-Cyclopropyl-2,2,2-trifluoroethyl]-4-oxo-7-(2-oxotetrahydropyrimidin-1(2H)-yl)-1-(2,4,6-trifluorophenyl)-1,4-dihydro-1,8-naphthyridine-3-carboxamide], the midpoint of the response, the EC50, lay at 25 nM and the Emax was 93.5%.

With `COC1(C)CN(c2ccc3c(=O)c(C(=O)N[C@H](C4CC4)C(F)(F)F)cn(-c4c(F)cc(F)cc4F)c3n2)C1` [Example 605, N-[(1R)-1-Cyclopropyl-2,2,2-trifluoroethyl]-7-(3-methoxy-3-methylazetidin-1-yl)-4-oxo-1-(2,4,6-trifluorophenyl)-1,4-dihydro-1,8-naphthyridine-3-carboxamide], the EC50 turned out to be 25 nM and the Emax came out at 98%.

For `CC(C)(CC(F)(F)F)NC(=O)c1cn(-c2c(F)cc(F)cc2F)c2nc(N3C[C@@H](O)[C@@H](O)C3)ccc2c1=O` [Example 612, 7-[(3R,4S)-3,4-Dihydroxypyrrolidin-1-yl]-4-oxo-N-(4,4,4-trifluoro-2-methylbutan-2-yl)-1-(2,4,6-trifluorophenyl)-1,4-dihydro-1,8-naphthyridine-3-carboxamide], the midpoint of the response, the EC50, lay at 29 nM and the Emax worked out at 100%.
